Assay results from patent US10590140B2, “Tetrahydropyrimidodiazepine and dihydropyridodiazepine compounds for treating pain and pain related conditions” (ESTEVE PHARMACEUTICALS, S.A., priority 2016, dated 2020).

target: human α2δ-1 subunit of Cav2.2 calcium channel (Homo sapiens (Human), UniProt P54289); assay: Binding assay to human α2δ-1 subunit of Cav2.2 calcium channel ([3H]-Gabapentin); details: binding to α2δ-1, [3H]-Gabapentin; read-out: Ki (nM) α2δ-1
Procedure, shortened: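 [3H]-gabapentin binding, 60 min at 27° C; nonspecific binding defined with 10 μM pregabalin. Terminated by filtration on PEI-presoaked GF/C filters, ice-cold 50 mM Tris-HCl pH 7.4 washes, then scintillation counting.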

Chain of human α2δ-1 subunit of Cav2.2 calcium channel (P54289 25-1103): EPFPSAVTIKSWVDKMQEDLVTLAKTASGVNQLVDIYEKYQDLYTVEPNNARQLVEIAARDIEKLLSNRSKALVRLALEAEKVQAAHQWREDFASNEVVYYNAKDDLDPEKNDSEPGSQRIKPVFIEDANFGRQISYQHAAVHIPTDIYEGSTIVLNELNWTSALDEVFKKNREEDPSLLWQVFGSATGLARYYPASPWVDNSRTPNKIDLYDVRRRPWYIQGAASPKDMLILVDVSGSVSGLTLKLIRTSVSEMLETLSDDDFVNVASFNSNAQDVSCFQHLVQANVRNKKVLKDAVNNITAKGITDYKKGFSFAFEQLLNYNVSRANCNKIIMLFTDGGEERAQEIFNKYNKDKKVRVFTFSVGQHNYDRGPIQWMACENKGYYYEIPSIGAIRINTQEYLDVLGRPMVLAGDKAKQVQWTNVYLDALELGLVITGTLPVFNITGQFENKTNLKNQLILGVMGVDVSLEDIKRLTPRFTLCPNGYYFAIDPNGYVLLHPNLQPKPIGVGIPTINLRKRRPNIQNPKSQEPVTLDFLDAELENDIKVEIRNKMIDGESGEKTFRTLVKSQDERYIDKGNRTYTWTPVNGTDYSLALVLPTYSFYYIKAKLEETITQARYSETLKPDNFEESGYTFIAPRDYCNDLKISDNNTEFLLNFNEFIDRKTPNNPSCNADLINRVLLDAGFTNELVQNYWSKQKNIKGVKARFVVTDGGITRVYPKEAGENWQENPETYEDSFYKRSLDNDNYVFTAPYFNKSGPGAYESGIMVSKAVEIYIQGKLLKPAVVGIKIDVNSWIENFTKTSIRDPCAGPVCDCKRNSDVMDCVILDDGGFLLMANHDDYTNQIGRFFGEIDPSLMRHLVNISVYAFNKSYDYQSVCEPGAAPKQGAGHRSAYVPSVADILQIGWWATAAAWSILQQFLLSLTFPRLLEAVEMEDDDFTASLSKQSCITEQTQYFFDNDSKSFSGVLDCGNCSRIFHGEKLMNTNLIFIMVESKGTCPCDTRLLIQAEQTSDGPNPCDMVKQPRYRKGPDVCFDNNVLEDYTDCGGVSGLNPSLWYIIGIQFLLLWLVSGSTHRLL

SMILES | Ki [nM]
CCNc1ncc2c(n1)N(C)CCN(c1cccc(-n3cc(CN4CCC5(CC4)CN(C(C)C)C(=O)[C@@H](C)O5)nn3)c1)C2=O [Example 284, (R)-9-((1-(3-(2-(ethylamino)-9-methyl-5-oxo-5,7,8,9-tetrahydro-6H-pyrimido[4,5-e] [1,4]diazepin-6-yl)phenyl)-1H-1,2,3-triazol-4-yl)methyl)-4-isopropyl-2-methyl-1-oxa-4,9-diazaspiro[5.5] undecan-3-one] | 100 to 500
CSc1ncc2c(n1)N(C)CCN(c1cccc(O[C@H](CCN(C)C(=O)OC(C)(C)C)c3cccs3)c1)C2=O [Example 13, tert-butyl (R)-methyl(3-(3-(9-methyl-2-(methylthio)-5-oxo-5,7,8,9-tetrahydro-6H-pyrimido[4,5-e] [1,4]diazepin-6-yl)phenoxy)-3-(thiophen-2-yl)propyl) carbamate] | > 3000
CCNc1ncc2c(n1)N(C)CCN(c1cccc(OC(CNC)C(C)C)c1)C2=O (stereo not drawn) [Example 158, 2-(ethylamino)-9-methyl-6-(3-((3-methyl-1-(methylamino)butan-2-yl)oxy)phenyl)-6,7,8,9-tetrahydro-5H-pyrimido[4,5-e][1,4]diazepin-5-one] | 500 to 3000
CCNc1ncc2c(n1)N(C)CCN(c1cccc(OC(CN(C)C(=O)OC(C)(C)C)c3ccccc3)c1)C2=O (stereo not drawn) [Example 72, tert-butyl (2-(3-(2-(ethylamino)-9-methyl-5-oxo-5,7,8,9-tetrahydro-6H-pyrimido[4,5-e][1,4]diazepin-6-yl)phenoxy)-2-phenylethyl)(methyl) carbamate] | > 3000
CSc1ncc2c(n1)N(C)CCN(c1cccc(-n3cc(CCN(C)C(=O)OC(C)(C)C)nn3)c1)C2=O [Example 43, tert-butyl methyl(2-(1-(3-(9-methyl-2-(methylthio)-5-oxo-5,7,8,9-tetrahydro-6H-pyrimido[4,5-e][1,4]diazepin-6-yl)phenyl)-1H-1,2,3-triazol-4-yl)ethyl) carbamate] | > 3000
CCNc1ncc2c(n1)N(C)CCN(c1cccc(COC3(c4ccccc4)CCN(C(=O)OC(C)(C)C)CC3)c1)C2=O [Example 96, tert-butyl 4-((3-(2-(ethylamino)-9-methyl-5-oxo-5,7,8,9-tetrahydro-6H-pyrimido[4,5-e][1,4]diazepin-6-yl)benzyl)oxy)-4-phenylpiperidine-1-carboxylate] | > 3000
CCNc1ncc2c(n1)N(C)CCN(c1cccc(OC3CCN(Cc4ccccc4)C3)c1)C2=O (stereo not drawn) [Example 266, 6-(3-((1-benzylpyrrolidin-3-yl)oxy)phenyl)-2-(ethylamino)-9-methyl-6,7,8,9-tetrahydro-5H-pyrimido[4,5-e][1,4]diazepin-5-one] | 100 to 500
COc1ccc(N2CCN(C)c3nc(SC)ncc3C2=O)cc1 [Example 37, 6-(4-methoxyphenyl)-9-methyl-2-(methylthio)-6,7,8,9-tetrahydro-5H-pyrimido[4,5-e][1,4]diazepin-5-one] | > 3000
CCNc1ncc2c(n1)N(C)CCN(c1cccc(C(=O)OC)c1)C2=O [Example 309, methyl 3-(2-(ethylamino)-9-methyl-5-oxo-5,7,8,9-tetrahydro-6H-pyrimido[4,5-e][1,4]diazepin-6-yl)benzoate] | 100 to 500
CSc1ncc2c(n1)N(C)CCN(c1cccc(CO[C@H](CCN(C)C(=O)OC(C)(C)C)c3ccccc3)c1)C2=O [Example 10, tert-butyl (R)-methyl(3-((3-(9-methyl-2-(methylthio)-5-oxo-5,7,8,9-tetrahydro-6H-pyrimido[4,5-e][1,4]diazepin-6-yl)benzyl)oxy)-3-phenylpropyl) carbamate] | > 3000
CCNc1ncc2c(n1)N(C)CCN(c1cccc(OC(CN(C)Cc3ccccc3)C(C)C)c1)C2=O (stereo not drawn) [Example 267, 6-(3-((1-(benzyl(methyl)amino)-3-methylbutan-2-yl)oxy)phenyl)-2-(ethylamino)-9-methyl-6,7,8,9-tetrahydro-5H-pyrimido[4,5-e][1,4]diazepin-5-one] | 500 to 3000
CNCCC(Oc1ccc(CN2CCN(C)c3nc(OC)ncc3C2=O)cc1)c1cc(C)cs1 (stereo not drawn) [Example 396, 2-methoxy-9-methyl-6-(4-(3-(methylamino)-1-(4-methylthiophen-2-yl)propoxy)benzyl)-6,7,8,9-tetrahydro-5H-pyrimido[4,5-e][1,4]diazepin-5-one] | 100 to 500
CCNc1ncc2c(n1)N(C)CCN(c1cccc(C(C)(C)CN(C)C(=O)OC(C)(C)C)c1)C2=O [Example 93, tert-butyl (2-(3-(2-(ethylamino)-9-methyl-5-oxo-5,7,8,9-tetrahydro-6H-pyrimido[4,5-e][1,4]diazepin-6-yl)phenyl)-2-methylpropyl)(methyl) carbamate] | > 3000
CSc1ncc2c(n1)N(C)CCN(c1cccc(OC(CN(C)C(=O)OC(C)(C)C)c3ccccc3)c1)C2=O (stereo not drawn) [Example 4, tert-butyl methyl(2-(3-(9-methyl-2-(methylthio)-5-oxo-5,7,8,9-tetrahydro-6H-pyrimido[4,5-e][1,4]diazepin-6-yl)phenoxy)-2-phenylethyl) carbamate] | > 3000
Cc1ncc2c(n1)N(C)CCN(c1cccc(CO[C@H](CCN(C)C(=O)OC(C)(C)C)c3ccccc3)c1)C2=O [Example 142, tert-Butyl (R)-(3-((3-(2,9-dimethyl-5-oxo-5,7,8,9-tetrahydro-6H-pyrimido[4,5-e][1,4]diazepin-6-yl)benzyl)oxy)-3-phenylpropyl)(methyl)carbamate] | > 3000
CSc1ncc2c(n1)N(C)CCN(c1cccc(O[C@H](CCN(C)C(=O)OC(C)(C)C)c3ccccc3)c1)C2=O [Example 2, tert-butyl (R)-methyl(3-(3-(9-methyl-2-(methylthio)-5-oxo-5,7,8,9-tetrahydro-6H-pyrimido[4,5-e][1,4]diazepin-6-yl)phenoxy)-3-phenylpropyl) carbamate] | > 3000
CCNc1ncc2c(n1)N(C)CCN(c1cccc(-n3cc(CN4CCC5(CC4)NCCc4ccccc45)nn3)c1)C2=O [Example 283, 6-(3-(4-((3,4-dihydro-2H-spiro[isoquinoline-1,4′-piperidin]-1′-yl)methyl)-1H-1,2,3-triazol-1-yl)phenyl)-2-(ethylamino)-9-methyl-6,7,8,9-tetrahydro-5H-pyrimido[4,5-e] [1,4]diazepin-5-one] | 100 to 500
CSc1ncc2c(n1)N(C)CCN(c1cccc(-c3noc(C)n3)c1)C2=O [Example 31, 9-methyl-6-(3-(5-methyl-1,2,4-oxadiazol-3-yl)phenyl)-2-(methylthio)-6,7,8,9-tetrahydro-5H-pyrimido[4,5-e][1,4]diazepin-5-one] | > 3000
CCNc1ncc2c(n1)N(C)CCN(Cc1ccccc1OC(CCNC)c1ccccc1)C2=O (stereo not drawn) [Example 409, 2-(ethylamino)-9-methyl-6-(2-(3-(methylamino)-1-phenylpropoxy)benzyl)-6,7,8,9-tetrahydro-5H-pyrimido[4,5-e][1,4]diazepin-5-one] | > 3000
Cc1cc2c(cn1)C(=O)N(c1cccc(OC(CCN(C)C(=O)OCC[Si](C)(C)C)c3cccs3)c1)CCN2C (stereo not drawn) [Example 302, 2-(trimethylsilyl)ethyl (3-(3-(1,8-dimethyl-5-oxo-1,2,3,5-tetrahydro-4H-pyrido[4,3-e][1,4]diazepin-4-yl)phenoxy)-3-(thiophen-2-yl)propyl) (methyl)carbamate] | > 3000
CNCC(Oc1ccccc1CN1CCN(C)c2ncncc2C1=O)c1ccccc1 (stereo not drawn) [Example 432, 9-methyl-6-(2-(2-(methylamino)-1-phenylethoxy)benzyl)-6,7,8,9-tetrahydro-5H-pyrimido[4,5-e][1,4]diazepin-5-one] | > 3000
